# “Also recorded” adds a separate entry of the source.
# What was measured:
# Assay type in all cases: cell-based, human
# [1] = test system: pancreatic cancer cells (AsPC1 and BxPC3) and breast cancer cells (MB361 and MB468); test: RT-qPCR of cytokine gene expression after CEP-1347; details: CEP-1347 200 nM
# Protocol: FIGS. 15A to 15D include charts showing that CEP-1347 inhibits IL-17RB Y447 phosphorylation, ERK1/2 phosphorylation, and aggressiveness of both pancreatic and breast cancer cells. Pancreatic cancer cells (AsPC1 and BxPC3) and breast cancer cells (MB361 and MB468) were transduced with lentiviral shLacZ (control) and lentiviral shMLK4, separately. In comparison to MLK4-knockdown cells, shLacZ-transduced cancer cells were pretreated with CEP-1347 (200 nM), a non-selective inhibitor of MLKs, before adding 50 ng/ml rIL-17B in serum-free conditions for 30 mins. The cell lysates were immunoblotted directly with the indicated antibodies (FIG. 15A). The same cells were measured by RT-qPCR for the cytokine gene expression (n=3) (FIG. 15B), for SACF assay (n=4) (FIG. 15C), and for invasion assay (n=4) (FIG. 15D). […]
# Total RNA from cultured cells and tumor tissue was isolated using Trizol reagent (Thermo Fisher Scientific) and reversely transcribed with Transcriptor First Strand cDNA Synthesis Kit (Roche Life Science) for gene expression analysis according to manufacturer's instructions. Quantitative real-time RT-PCR assay was run on the StepOnePlus system (Applied Biosystems) using KAPA SYBR FAST qPCR Kit (Kapa Biosystems) according to manufacturer's instructions, and data was analyzed by StepOne Software v2.2.2. β-actin mRNA was used as an internal control. […]
# [2] = test system: pancreatic cancer cells (AsPC1 and BxPC3) and breast cancer cells (MB361 and MB468); test: SACF assay with CEP-1347
# Protocol: (§1) FIGS. 15A to 15D include charts showing that CEP-1347 inhibits IL-17RB Y447 phosphorylation, ERK1/2 phosphorylation, and aggressiveness of both pancreatic and breast cancer cells. Pancreatic cancer cells (AsPC1 and BxPC3) and breast cancer cells (MB361 and MB468) were transduced with lentiviral shLacZ (control) and lentiviral shMLK4, separately. In comparison to MLK4-knockdown cells, shLacZ-transduced cancer cells were pretreated with CEP-1347 (200 nM), a non-selective inhibitor of MLKs, before adding 50 ng/ml rIL-17B in serum-free conditions for 30 mins. The cell lysates were immunoblotted directly with the indicated antibodies (FIG. 15A). The same cells were measured by RT-qPCR for the cytokine gene expression (n=3) (FIG. 15B), for SACF assay (n=4) (FIG. 15C), and for invasion assay (n=4) (FIG. 15D). All the data are mean±s.d. *P<0.05, **P<0.01 by two-tailed Student's t-test.
# Soft agar colony formation assay was performed as described (7). Briefly, 250010000 cells were seeded in a layer of 0.35% agar/complete growth medium over a layer of 0.5% agar/complete growth medium in a 12-well plate. Cell medium containing the indicated concentration of rIL-17B (R&D), DMSO (Sigma-Aldrich), or CEP-1347 (Tocris Bioscience) was replenished every three days. […] Crystal violet-stained colonies greater than 50 μm in size were counted and analyzed objectively by light microscopy.
# [3] = test system: MLKs; test: Immunoblotting of IL-17B-induced phosphorylation after CEP-1347 pretreatment; details: CEP-1347 200 nM pretreatment, then 50 ng/ml rIL-17B 30 mins; AsPC1, BxPC3, MB361, MB468
# Protocol: as §1
# Immunoblotting analysis was performed after proteins were separated by gradient SDS-PAGE (HR gradient gel solution, TFUGG420, TOOLS) and transferred to PVDF membrane, with overnight incubation with diluted primary antibody followed by diluted horseradish peroxidase-conjugated anti-rabbit, anti-mouse or anti-goat antibody (Jackson ImmunoResearch) as described (48-50). […] Optical density was determined using the National Institutes of Health ImageJ program.
# [4] = test system: pancreatic cancer cells (AsPC1 and BxPC3) and breast cancer cells (MB361 and MB468); test: Invasion assay with CEP-1347
# Protocol: as §1
# For invasion assay, about 10^4 cells were seeded in the top chamber with Matrigel-coated membrane (24-well BD Falcon HTS Fluoro Block insert; pore size, 8 μm; BD Biosciences) in serum-free media containing rIL-17B, DMSO, or CEP-1347. Medium supplemented with 10% serum was used as a chemoattractant in the lower chamber. After 24- or 48 hrs incubation, the invading cells were fixed with methanol, stained with 4,6-diamidino-2-phenylindole (DAPI) and counted by fluorescence microscopy.
smiles,measurement,setting,value
CCSCc1ccc2c(c1)c1c3c(c4c5cc(CSCC)ccc5n5c4c1n2[C@H]1C[C@](O)(C(=O)OC)[C@]5(C)O1)CNC3=O [CEP-1347],cytokine gene expressions,[1],abrogated
same,aggressiveness of both pancreatic and breast cancer cells,"[2]; CEP-1347 200 nM, SACF and invasion assays",inhibits
same,colony formation,"[2]; CEP-1347, AsPC1, BxPC3, MB361, MB468",abrogated
same,ERK1/2 phosphorylation,[3],abrogated; also recorded: inhibits
same,IL-17RB (Y447) phosphorylation,[3],abrogated; also recorded: inhibits
same,invasion properties of the cancer cells,[4],abrogated

# From patent US20240124528A1, “ANTAGONIST OF INTERLEUKIN-17B RECEPTOR (IL-17RB) AND USE THEREOF” (Academia Sinica, priority 2020, published 2024)
